Assay results from patent US20050282743A1, “Molecular interactions in cells” (Arbor Vita Corporation, priority 2001, published 2005).
Where two headings read alike, the source gives them in different places. Peptide text beside a SMILES is read from it. * marks the point of attachment. Biotin = O=C1N[C@H]2[C@H](CS[C@H]2CCCCC(=O)*)N1

How the values were obtained:
[1] = target: T1, PDZ-domain polypeptide (GST/PDZ fusion protein) (Homo sapiens, UniProt Q12923); test: Apparent affinity (Kd) by titration of PL peptide in the G assay; assay type: binding
T1 construct: made in house; host or cells: E. coli (DH5alpha, BL21 or JM109)
In short: (§1)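 A fixed concentration of GST/PDZ fusion protein, 5 ug/ml by default, was mixed in solution with increasing labeled PL peptide (e.g. 0.1 uM-1 mM). Reaction times ranged from 10 minutes to 2 days at 4-37° C. Complexes were separated from free peptide and detected via the label as in the G assay, apparent affinity coming from the saturating concentration.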

[2] = target: T2, PDZ-domain polypeptide (GST/PDZ fusion protein) (Homo sapiens, UniProt Q5TCQ9); test: as above; assay type: binding
T2 construct: made in house; host or cells: E. coli (DH5alpha, BL21 or JM109)
T2 sequence (Q5TCQ9 1-1481): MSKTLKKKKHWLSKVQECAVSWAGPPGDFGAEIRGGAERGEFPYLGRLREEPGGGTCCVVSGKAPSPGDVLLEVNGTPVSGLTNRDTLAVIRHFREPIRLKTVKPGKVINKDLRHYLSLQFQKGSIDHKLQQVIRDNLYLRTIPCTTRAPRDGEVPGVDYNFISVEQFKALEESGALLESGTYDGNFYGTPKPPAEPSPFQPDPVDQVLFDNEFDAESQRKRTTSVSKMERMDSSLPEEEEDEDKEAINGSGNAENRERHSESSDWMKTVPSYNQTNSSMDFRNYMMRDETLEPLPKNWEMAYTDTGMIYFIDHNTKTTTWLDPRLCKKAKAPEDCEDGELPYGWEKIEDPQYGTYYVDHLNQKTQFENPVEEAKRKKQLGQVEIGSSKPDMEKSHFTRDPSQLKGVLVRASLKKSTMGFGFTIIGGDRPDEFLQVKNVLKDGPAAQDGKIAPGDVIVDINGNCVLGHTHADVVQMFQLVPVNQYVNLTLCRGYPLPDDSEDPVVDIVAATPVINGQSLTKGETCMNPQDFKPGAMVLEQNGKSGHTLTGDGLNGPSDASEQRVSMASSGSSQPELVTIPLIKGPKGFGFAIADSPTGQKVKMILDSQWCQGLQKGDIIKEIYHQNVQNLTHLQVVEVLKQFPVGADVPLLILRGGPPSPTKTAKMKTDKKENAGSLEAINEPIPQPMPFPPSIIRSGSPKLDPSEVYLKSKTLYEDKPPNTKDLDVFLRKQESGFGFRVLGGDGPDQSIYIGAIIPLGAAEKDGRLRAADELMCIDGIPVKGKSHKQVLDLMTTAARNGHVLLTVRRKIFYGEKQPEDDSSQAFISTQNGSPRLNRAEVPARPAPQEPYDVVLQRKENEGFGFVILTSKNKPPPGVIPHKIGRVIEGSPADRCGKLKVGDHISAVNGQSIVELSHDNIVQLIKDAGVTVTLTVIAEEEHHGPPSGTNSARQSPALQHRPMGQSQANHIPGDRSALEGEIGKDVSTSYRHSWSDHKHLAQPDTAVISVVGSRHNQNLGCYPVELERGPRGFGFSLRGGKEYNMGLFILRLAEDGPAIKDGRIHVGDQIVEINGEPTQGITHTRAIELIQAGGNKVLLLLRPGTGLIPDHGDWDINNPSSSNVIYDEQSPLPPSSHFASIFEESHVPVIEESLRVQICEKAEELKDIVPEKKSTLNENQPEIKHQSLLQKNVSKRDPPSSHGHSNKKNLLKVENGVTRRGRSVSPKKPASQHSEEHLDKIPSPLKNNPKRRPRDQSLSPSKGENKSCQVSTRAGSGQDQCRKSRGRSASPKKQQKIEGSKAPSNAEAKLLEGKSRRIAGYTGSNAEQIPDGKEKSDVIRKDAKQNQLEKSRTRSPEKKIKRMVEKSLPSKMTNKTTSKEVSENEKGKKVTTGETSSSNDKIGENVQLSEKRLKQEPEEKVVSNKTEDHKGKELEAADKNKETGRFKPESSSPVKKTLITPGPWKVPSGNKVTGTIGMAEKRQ
In short: as §1

[3] = PDZ PTPL-1, PDZ Domain 2, read-out: Peptide Optimal Conc (Kd by titration of the PL peptide)

T1 sequence (Q12923 whole entry, the tested form may be a part): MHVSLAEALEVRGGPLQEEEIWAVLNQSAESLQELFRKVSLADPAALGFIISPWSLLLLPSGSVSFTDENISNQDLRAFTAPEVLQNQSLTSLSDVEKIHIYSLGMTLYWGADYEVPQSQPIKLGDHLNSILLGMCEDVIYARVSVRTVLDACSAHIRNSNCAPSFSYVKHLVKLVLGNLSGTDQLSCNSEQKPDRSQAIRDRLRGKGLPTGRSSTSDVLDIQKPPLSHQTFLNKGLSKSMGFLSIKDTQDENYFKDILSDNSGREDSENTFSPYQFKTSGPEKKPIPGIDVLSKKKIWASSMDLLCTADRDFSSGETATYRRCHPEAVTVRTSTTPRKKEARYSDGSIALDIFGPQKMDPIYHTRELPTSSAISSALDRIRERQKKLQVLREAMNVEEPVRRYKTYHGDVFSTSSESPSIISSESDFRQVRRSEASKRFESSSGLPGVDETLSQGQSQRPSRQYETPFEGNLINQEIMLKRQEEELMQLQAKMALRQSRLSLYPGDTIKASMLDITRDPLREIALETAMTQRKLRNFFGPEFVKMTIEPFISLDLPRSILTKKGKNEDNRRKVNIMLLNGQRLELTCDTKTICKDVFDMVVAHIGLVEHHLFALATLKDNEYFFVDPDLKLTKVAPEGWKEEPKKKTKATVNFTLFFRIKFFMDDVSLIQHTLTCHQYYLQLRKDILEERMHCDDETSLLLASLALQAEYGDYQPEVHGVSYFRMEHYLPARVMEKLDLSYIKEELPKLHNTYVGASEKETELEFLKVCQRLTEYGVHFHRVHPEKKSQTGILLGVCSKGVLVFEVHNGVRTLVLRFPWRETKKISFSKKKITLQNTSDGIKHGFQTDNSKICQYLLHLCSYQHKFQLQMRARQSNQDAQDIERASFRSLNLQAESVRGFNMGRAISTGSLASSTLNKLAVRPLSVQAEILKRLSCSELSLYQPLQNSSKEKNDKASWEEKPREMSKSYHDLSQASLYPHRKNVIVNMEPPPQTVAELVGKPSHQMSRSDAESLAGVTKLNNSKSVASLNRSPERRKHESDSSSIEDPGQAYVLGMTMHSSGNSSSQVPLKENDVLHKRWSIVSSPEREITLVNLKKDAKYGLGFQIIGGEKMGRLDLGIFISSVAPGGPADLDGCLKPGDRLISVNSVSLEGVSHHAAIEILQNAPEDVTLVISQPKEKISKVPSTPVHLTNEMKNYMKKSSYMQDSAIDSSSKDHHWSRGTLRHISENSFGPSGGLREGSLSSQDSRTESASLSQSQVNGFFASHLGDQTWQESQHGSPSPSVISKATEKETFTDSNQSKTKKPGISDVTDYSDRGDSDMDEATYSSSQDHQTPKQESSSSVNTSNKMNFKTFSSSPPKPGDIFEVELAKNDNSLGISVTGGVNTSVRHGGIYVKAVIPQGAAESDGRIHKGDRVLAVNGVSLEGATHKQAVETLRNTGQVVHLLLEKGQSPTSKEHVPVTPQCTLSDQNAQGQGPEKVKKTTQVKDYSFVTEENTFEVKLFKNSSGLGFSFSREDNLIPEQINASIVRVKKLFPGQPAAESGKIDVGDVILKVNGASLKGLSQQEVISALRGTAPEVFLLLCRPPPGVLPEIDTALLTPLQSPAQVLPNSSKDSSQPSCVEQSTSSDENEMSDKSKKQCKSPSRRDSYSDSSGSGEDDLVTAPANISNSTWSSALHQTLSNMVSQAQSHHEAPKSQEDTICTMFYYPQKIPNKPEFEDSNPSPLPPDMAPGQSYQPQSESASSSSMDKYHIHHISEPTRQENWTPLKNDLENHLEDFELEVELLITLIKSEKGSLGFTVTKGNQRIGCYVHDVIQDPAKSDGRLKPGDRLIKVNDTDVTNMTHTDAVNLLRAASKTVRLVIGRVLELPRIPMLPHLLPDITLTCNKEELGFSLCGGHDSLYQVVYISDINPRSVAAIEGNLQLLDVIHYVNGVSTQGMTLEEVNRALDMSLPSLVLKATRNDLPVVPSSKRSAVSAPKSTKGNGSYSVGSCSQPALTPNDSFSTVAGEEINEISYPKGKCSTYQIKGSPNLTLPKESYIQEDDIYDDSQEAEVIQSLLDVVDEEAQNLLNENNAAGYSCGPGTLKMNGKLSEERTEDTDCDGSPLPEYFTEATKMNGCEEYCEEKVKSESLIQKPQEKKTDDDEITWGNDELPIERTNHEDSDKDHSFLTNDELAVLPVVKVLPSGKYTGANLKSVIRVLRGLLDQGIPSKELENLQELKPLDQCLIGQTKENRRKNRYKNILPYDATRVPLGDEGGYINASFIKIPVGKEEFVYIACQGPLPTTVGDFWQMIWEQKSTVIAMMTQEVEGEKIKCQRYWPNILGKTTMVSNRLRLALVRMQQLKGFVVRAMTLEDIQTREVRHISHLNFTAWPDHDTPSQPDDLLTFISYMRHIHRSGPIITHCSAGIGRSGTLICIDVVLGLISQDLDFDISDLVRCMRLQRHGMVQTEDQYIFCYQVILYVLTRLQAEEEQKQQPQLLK

SMILES: CC[C@H](C)[C@H](NC(=O)[C@H](Cc1ccc(O)cc1)NC(=O)[C@H](CC(C)C)NC(=O)[C@H](CCC(N)=O)NC(=O)[C@H](Cc1c[nH]cn1)NC(=O)[C@H](CO)NC(=O)[C@H](C)NC(=O)[C@H](CC(C)C)NC(=O)[C@@H](NC(=O)[C@H](CC(=O)O)NC(=O)[C@H](CCSC)NC(=O)[C@H](Cc1ccccc1)NC(=O)[C@@H]1CCCN1C(=O)[C@H](CCCNC(=N)N)NC(=O)[C@@H](NC(=O)[C@H](CC(C)C)NC(=O)[C@H](CC(N)=O)NC(=O)[C@H](CC(=O)O)NC(=O)[C@@H](NC(=O)[C@H](CO)NC(=O)CCCC[C@@H]1SC[C@@H]2NC(=O)N[C@@H]21)[C@@H](C)O)C(C)C)[C@@H](C)O)C(=O)O [presenilin-2] (Biotin-STDNLVRPFMDTLASHQLYI-OH; C-terminus assumed)
- Kd ([1]; PDZ PTPL-1, PDZ Domain 4, titration of the PL peptide, read-out: Peptide Optimal Conc (Kd, dissociation constant)): 8 µM

SMILES: CC[C@H](C)[C@H](NC(=O)[C@H](Cc1c[nH]cn1)NC(=O)[C@H](C)NC(=O)[C@H](C)NC(=O)[C@H](CO)NC(=O)[C@@H]1CCCN1C(=O)[C@H](CCCNC(=N)N)NC(=O)[C@H](CC(=O)O)NC(=O)[C@H](CCCCN)NC(=O)[C@@H]1CCCN1C(=O)[C@H](CC(=O)O)NC(=O)[C@H](CCC(=O)O)NC(=O)CCCC[C@@H]1SC[C@@H]2NC(=O)N[C@@H]21)C(=O)N[C@H](C(=O)N[C@@H](CCC(=O)O)C(=O)N[C@@H](C)C(=O)N[C@@H](CC(C)C)C(=O)N[C@@H](CCC(=O)O)C(=O)N[C@H](C(=O)N[C@@H](CC(=O)O)C(=O)N[C@H](C(=O)O)C(C)C)[C@@H](C)O)C(C)C [PDZ-binding kinase (PBK)] (Biotin-EDPKDRPSAAHIVEALETDV-OH; C-terminus assumed)
- Kd ([2]; PDZ KIAA1634, PDZ Domain 2, read-out: Peptide Optimal Conc (non-zero value: Kd by titration of the PL peptide)): 7 µM
- Kd ([1]; PDZ PTPL-1, PDZ Domain 2, read-out: Peptide Optimal Conc (non-zero value: Kd by titration of the PL peptide)): 6 µM

SMILES: CC[C@H](C)[C@H](NC(=O)[C@H](CC(=O)O)NC(=O)[C@H](CCC(=O)O)NC(=O)[C@H](CCCNC(=N)N)NC(=O)[C@@H](NC(=O)CCCC[C@@H]1SC[C@@H]2NC(=O)N[C@@H]21)[C@@H](C)O)C(=O)N[C@@H](Cc1ccc(O)cc1)C(=O)N[C@H](C(=O)N[C@@H](CC(N)=O)C(=O)N[C@@H](Cc1ccc(O)cc1)C(=O)N1CCC[C@H]1C(=O)N[C@H](C(=O)N[C@@H](Cc1ccccc1)C(=O)N[C@@H](CO)C(=O)N[C@@H](CCCNC(=N)N)C(=O)N[C@@H](CCCNC(=N)N)C(=O)N1CCC[C@H]1C(=O)N[C@@H](CCCCN)C(=O)N[C@H](C(=O)N[C@@H](CCCNC(=N)N)C(=O)N[C@H](C(=O)O)C(C)C)[C@@H](C)O)[C@@H](C)O)C(C)C [DNAM-1] (Biotin-TREDIYVNYPTFSRRPKTRV-OH; C-terminus assumed)
- Kd ([2]; Peptide Optimal Conc (Kd by titration of the PL peptide), PDZ KIAA1634, PDZ Domain 1): 1 µM

SMILES: CC(C)C[C@H](NC(=O)CNC(=O)[C@@H](NC(=O)[C@H](CO)NC(=O)[C@H](CC(N)=O)NC(=O)[C@H](Cc1ccccc1)NC(=O)CNC(=O)[C@H](C)NC(=O)[C@H](C)NC(=O)[C@H](Cc1ccccc1)NC(=O)[C@@H](NC(=O)CCCC[C@@H]1SC[C@@H]2NC(=O)N[C@@H]21)[C@@H](C)O)[C@@H](C)O)C(=O)N1CCC[C@H]1C(=O)N[C@@H](Cc1c[nH]cn1)C(=O)N[C@@H](CO)C(=O)N[C@H](C(=O)N[C@H](C(=O)N[C@@H](CCCNC(=N)N)C(=O)N[C@H](C(=O)O)C(C)C)[C@@H](C)O)[C@@H](C)O [Neuroligin] (Biotin-TFAAGFNSTGLPHSTTRV-OH; C-terminus assumed)
- Kd ([2]; PDZ KIAA1634, PDZ Domain 1, read-out: Peptide Optimal Conc (Kd by titration of the PL peptide)): 0.1 µM

SMILES: CC(C)C[C@H](NC(=O)[C@H](CC(C)C)NC(=O)[C@@H](NC(=O)[C@H](CC(=O)O)NC(=O)CCCC[C@@H]1SC[C@@H]2NC(=O)N[C@@H]21)[C@@H](C)O)C(=O)N[C@@H](CC(C)C)C(=O)N[C@H](C(=O)N[C@@H](CCC(=O)O)C(=O)N[C@@H](CC(N)=O)C(=O)N[C@@H](CCC(=O)O)C(=O)NCC(=O)N[C@@H](CC(=O)O)C(=O)N[C@@H](CCCCN)C(=O)N[C@H](C(=O)N[C@@H](CCC(=O)O)C(=O)N[C@@H](CCC(=O)O)C(=O)N[C@@H](CCC(N)=O)C(=O)N[C@H](C(=O)N[C@@H](CO)C(=O)N[C@@H](Cc1ccc(O)cc1)C(=O)N[C@H](C(=O)O)C(C)C)C(C)C)[C@@H](C)O)[C@@H](C)O [5H2B_HUMAN] (Biotin-DTLLLTENEGDKTEEQVSYV-OH; C-terminus assumed)
- Kd [1, 3]: 0.2 µM

SMILES: CC[C@H](C)[C@H](NC(=O)[C@H](CO)NC(=O)[C@@H](NC(=O)[C@H](Cc1ccccc1)NC(=O)[C@H](CO)NC(=O)CCCC[C@@H]1SC[C@@H]2NC(=O)N[C@@H]21)[C@@H](C)O)C(=O)N[C@@H](CC(C)C)C(=O)N[C@H](C(=O)N[C@@H](CS)C(=O)N[C@@H](Cc1c[nH]cn1)C(=O)N[C@@H](CCC(N)=O)C(=O)N[C@@H](CCCNC(=N)N)C(=O)N[C@@H](CCCNC(=N)N)C(=O)N[C@H](C(=O)N[C@@H](CCC(N)=O)C(=O)N[C@@H](CCCNC(=N)N)C(=O)N[C@@H](CCCCN)C(=O)N[C@@H](CCC(=O)O)C(=O)N[C@H](C(=O)N[C@H](C(=O)N[C@@H](C)C(=O)O)C(C)C)[C@@H](C)O)[C@@H](C)O)[C@@H](C)O [GluR5-2 (rat)]
- Kd ([2]; PDZ KIAA1634, PDZ Domain 1, titration of the PL peptide, read-out: Peptide Optimal Conc (Kd, dissociation constant)): 0.15 µM

SMILES: CC(C)C[C@H](NC(=O)[C@H](CC(=O)O)NC(=O)[C@H](CO)NC(=O)[C@H](CCC(=O)O)NC(=O)CNC(=O)[C@H](Cc1ccc(O)cc1)NC(=O)[C@H](CC(C)C)NC(=O)[C@H](C)NC(=O)[C@H](CO)NC(=O)[C@H](CO)NC(=O)[C@H](Cc1ccccc1)NC(=O)[C@H](C)NC(=O)[C@H](C)NC(=O)[C@H](Cc1ccc(O)cc1)NC(=O)[C@H](CC(=O)O)NC(=O)[C@H](CC(C)C)NC(=O)[C@H](C)NC(=O)CNC(=O)[C@@H]1CCCN1C(=O)[C@@H](NC(=O)CCCC[C@@H]1SC[C@@H]2NC(=O)N[C@@H]21)C(C)C)C(=O)O [a-actinin 2] (Biotin-VPGALDYAAFSSALYGESDL-OH; C-terminus assumed)
- Kd ([2]; PDZ KIAA1634, PDZ Domain 5, read-out: Peptide Optimal Conc (non-zero value: Kd by titration of the PL peptide)): 2 µM

SMILES: CC[C@H](C)[C@H](NC(=O)[C@H](CCC(N)=O)NC(=O)[C@@H](NC(=O)[C@H](Cc1c[nH]cn1)NC(=O)[C@H](CCC(N)=O)NC(=O)[C@H](CC(=O)O)NC(=O)[C@H](CCC(=O)O)NC(=O)[C@H](CC(=O)O)NC(=O)[C@H](Cc1ccccc1)NC(=O)[C@@H]1CCCN1C(=O)[C@H](CCC(=O)O)NC(=O)[C@H](CC(N)=O)NC(=O)[C@H](CCC(=O)O)NC(=O)[C@@H]1CCCN1C(=O)[C@H](CC(=O)O)NC(=O)[C@H](CO)NC(=O)[C@H](CC(=O)O)NC(=O)CCCC[C@@H]1SC[C@@H]2NC(=O)N[C@@H]21)[C@@H](C)O)C(=O)N[C@H](C(=O)N[C@@H](CCCCN)C(=O)N[C@H](C(=O)O)C(C)C)[C@@H](C)O [PTEN]
- Kd [1, 3]: 0.3 µM
